Measured values as given in US6080780A, “Use of nitroflavonoids for the treatment of anxiety” (University of Strathclyde, priority 1995, dated 2000).
Read-outs that look alike come from different tables or passages of the source.

Key:
[1] = target: T1, central benzodiazepine receptor type I (Rattus norvegicus, UniProt P18508+P62813); experiment: [3H]-zolpidem binding to rat synaptosomal membranes; design: species or system rat (Wistar); details: read-out: Ki, [3H]-ZOLP binding
T1 construct: washed crude synaptosomal membranes from rat cerebral cortex; from tissue; host or cells: Wistar rat cerebral cortex, striatum, cerebellum (crude synaptosomal membranes)
T1 sequence (P62813 28-455): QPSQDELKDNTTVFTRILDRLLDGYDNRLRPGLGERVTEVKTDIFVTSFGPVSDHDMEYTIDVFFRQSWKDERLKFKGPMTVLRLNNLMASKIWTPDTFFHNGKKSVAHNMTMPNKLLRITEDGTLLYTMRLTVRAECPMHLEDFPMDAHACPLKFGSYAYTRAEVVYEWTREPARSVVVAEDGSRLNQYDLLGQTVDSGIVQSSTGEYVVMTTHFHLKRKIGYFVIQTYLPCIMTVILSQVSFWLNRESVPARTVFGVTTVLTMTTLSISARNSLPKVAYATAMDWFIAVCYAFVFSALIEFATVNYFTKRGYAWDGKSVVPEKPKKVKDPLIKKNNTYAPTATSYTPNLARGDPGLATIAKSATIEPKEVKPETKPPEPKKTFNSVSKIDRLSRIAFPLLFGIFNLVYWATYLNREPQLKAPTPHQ
T1 sequence (P18508 39-466): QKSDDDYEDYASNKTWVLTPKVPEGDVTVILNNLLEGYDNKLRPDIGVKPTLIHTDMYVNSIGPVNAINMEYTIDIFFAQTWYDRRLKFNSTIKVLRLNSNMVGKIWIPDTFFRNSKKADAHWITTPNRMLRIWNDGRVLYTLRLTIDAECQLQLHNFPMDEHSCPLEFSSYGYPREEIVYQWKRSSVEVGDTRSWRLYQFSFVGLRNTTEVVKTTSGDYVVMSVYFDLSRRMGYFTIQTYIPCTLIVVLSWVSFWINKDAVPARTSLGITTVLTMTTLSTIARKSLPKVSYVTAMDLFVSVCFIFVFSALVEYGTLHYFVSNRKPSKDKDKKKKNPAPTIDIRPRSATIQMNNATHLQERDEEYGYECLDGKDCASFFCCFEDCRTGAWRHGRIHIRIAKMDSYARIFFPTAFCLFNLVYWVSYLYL
T1 sequence (P63138 25-474 partner limits assumed): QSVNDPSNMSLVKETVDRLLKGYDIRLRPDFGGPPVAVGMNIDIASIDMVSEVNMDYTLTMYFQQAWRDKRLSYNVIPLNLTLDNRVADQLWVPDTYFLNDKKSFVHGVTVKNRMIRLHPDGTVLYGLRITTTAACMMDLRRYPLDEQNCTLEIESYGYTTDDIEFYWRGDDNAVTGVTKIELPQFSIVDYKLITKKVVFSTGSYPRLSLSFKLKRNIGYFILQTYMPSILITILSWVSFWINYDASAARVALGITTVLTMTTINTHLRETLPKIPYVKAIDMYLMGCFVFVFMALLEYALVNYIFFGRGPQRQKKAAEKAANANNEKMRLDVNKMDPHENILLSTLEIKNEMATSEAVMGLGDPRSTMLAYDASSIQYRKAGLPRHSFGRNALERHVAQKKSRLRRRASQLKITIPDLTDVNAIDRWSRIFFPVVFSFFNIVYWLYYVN
Experimental: (§1) Adult male Wistar rats weighing 250 g were used for biochemical experiments. Adult male Swiss male weighing 25-30 g were used for pharmacological assays except for inhibitory avoidance and tail flick tests were done in rats. Animals were housed in a controlled environment, with free access to food and water and maintained on a 12 h/12 h day/night cycle.
(§2) Displacement curves were performed using [^3 ]-FNZ or [^3 H]-zolpidem ([^3 H]-ZOLP) as radioligands in washed crude synaptosomal membranes from rat cerebral cortex, cerebellum, hippocampus, striatum or spinal cord. Membrane preparations were carried out according to Medina et al. (1990). Briefly, brains were rapidly dissected out on ice and the different structures were homogenized in 10 volumes of 0.32 M sucrose and centrifuged at 900×g for 10 min. The resulting supernatant was centrifuged at 100,000×g for 30 min and the pellet washed twice in 25 mM Tris HCl buffer pH 7.4 at 100,000×g for 30 min, and stored at -20° C. until used.
For [^3 H]-ZOLP (50.8 Ci/mmol, NEN) binding assays we used the technique of Arbilla et al. (1986), slightly modified as follows: displacement curves were done with 1 nM of the radioligand and 10 μM zolpidem to determine the nonspecific binding (<15%). The incubation of the samples (0.4 mg protein in 1 ml of 50 mM Tris HCl buffer, pH 7.4, 120 mM NaCl, 5 mM KCl) was carried out at 4' C. during 30 min. […]

[2] = Holeboard test in mice; format: in vivo, male Swiss mice; details: mouse, in vivo, ip; 10 mg/kg vs anxiolytic dose; read-out: dose decreasing holeboard parameters relative to anxiolytic dose
Experimental: as §1
(§3) The test was performed according to Viola et al. (1994) and Wolfman et al. (1994). The number of head dips and the time spent head dipping were counted during 5 min.

[3] = system: mice; experiment: Holeboard test in mice; format: in vivo, male Swiss mice; details: for number of head dips and time spent head-dipping: mice, i.p.
Experimental: as §1, §3

[4] = system: β adrenergic receptors; experiment: [3H]-dihidroalprenolol binding; details: 20 μM; data not shown
Experimental: (§4) Additional binding studies were performed as described elsewhere: [^3 ]-prazosin binding for α1 adrenergic receptors (Medina et al., 1984), [^3 H]-dihidroalprenolol binding for β adrenergic receptors (Medina et al. 1984), [^3 H]-quinuclinidyl benzylate binding for muscarinic cholinergic receptors (Jerusalinksy et al., 1983), [^3 H]-muscimol binding for GABAλ receptors (Medina et al., 1983) and [^3 H]-8-Hydroxydipropylaminotetralin ([^3 H]--OH--DPAT) binding for serotonin (5-HTlλ) receptors (Nenonene et al., 1984).

[5] = target: central benzodiazepine receptors; experiment: Autoradiographic [3H]-FNZ displacement on rat brain sections; format: binding, rat (Wistar); details: for Ki: n=3, read-out: Ki, [3H]-FNZ binding, autoradiography
Experimental: Wistar rats were decapitated and brains rapidly removed. Sagittal sections (15 μm in thickness) were prepared at -20° C. using a microtome-cryostat. The tissue slices were kept frozen at -70° C. until used. For DNF displacement curves to [^3 H]--FNZ binding (0.65 nM), tissue sections were incubated for 60 min at 4° C. in 25 mM Tris HCl buffer, pH 7.4, in presence of different concentrations of DNF (1-600 nM). For non-specific binding we used 10 μM FNZ. The incubation was terminated by rinsing the sections for two min in cold buffer. Sections were briefly dipped in cold distilled water and dried rapidly under a stream of cold air (Niddam et al., 1987).
Autoradiograms were generated by apposing the slide-mounted tissue section to tritium-sensitive film (Hyperfilm Amersham) in a light-proof X-ray cassette at 4° C. for two weeks.
The optical densities from different brain regions were converted first to radioactive units and then to fmol/mm^2 using the [^3 H] standards on the film with the aid of a computerized image densitometric analysis system (MCID 4.02). The values were normalized and the Ki values were determined using a computerized program (Graph-Pad Prism) Bernabeu et al., 1995; Cammarota et al., 1995).

[6] = system: serotonin (5-HTlλ) receptors; experiment: [3H]-8-OH-DPAT binding; details: 20 μM; data not shown
Experimental: as §4

[7] = target: central benzodiazepine receptor; experiment: [3H]-FNZ binding to crude synaptosomal membranes from rat CNS regions; design: species or system rat (Wistar); details: read-out: Ki, [3H]-FNZ binding
Experimental: as §1, §2
For [^3 H]-FNZ (84 Ci/mmol, NEN) displacement curves, different concentrations of DNF (0.3 nM to 1 μM) were added to 0.3 mg membrane protein suspended in 1 ml of 25 mM Tris HCl buffer in presence of 0.6 nM of the radioligand. Protein determination was carried out by using the method of Lowry et al. (1951). Nonspecific binding (<5%) was determined in parallel incubations with 10 μM FNZ (Hoffmann-La Roche). The incubation was carried out at 4° C. for 2 h. The assays were determined by filtration under vacuum through Whatman GF/A glass fiber filters, and two washes with 3 ml each of incubation medium. Filters were dried and counted after the addition of 5 ml 2,5-diphenyl-oxazole (PPO)-xylene as scintillation fluid.

[8] = system: α1 adrenergic receptors; experiment: [3H]-prazosin binding; details: 20 μM; data not shown
Experimental: as §4

[9] = Sodium thiopental-induced sleeping time; format: in vivo, mice; details: mouse, in vivo; thiopental sleep, locomotor activity and holeboard together; read-out: doses with slight depressant action relative to anxiolytic doses
Experimental: (§5) Sodium thiopental (Abbott) (22 mg/kg) was i.p. injected 15 min after vehicle or DNF. The disappearance and reappearance of the righting reflex were considered indications of latency and duration of sleep, respectively (Anca et al., 1993).
(§6) Mice were injected with sodium thiopental (TP, 22 mg/kg i.p.) 15 min after vehicle (VEH) or 6,3'-dinitroflavone (DNF). The ceiling of sleeping time was 1800 s. Data are expressed in medians (interquartile range). ^3 number of animals per group.

[10] = system: mice; experiment: Sodium thiopental-induced sleeping time; format: in vivo; details: for Sleeping Time / Latency: median (interquartile range); for Sleeping Time: VEH 190; for Latency: VEH 233
Experimental: as §5, §6

Which results are given for `O=c1cc(-c2cccc([N+](=O)[O-])c2)oc2ccc([N+](=O)[O-])cc12` [Compound (II), 6,3'-dinitroflavone]?
Ki ([1]; rat cerebellum, n=3): 17 ± 1.5 nM; Ki ([1]; rat cerebral cortex, n=5): 17.2 ± 3.7 nM; selectivity ratio [2]: 300; number of head dips and time spent head-dipping ([3]; 10 mg/kg, p<0.01): decreased both parameters; number of head dips and time spent head-dipping ([3]; up to 3 mg/kg): did not change the number of head dips and the time spent head-dipping; dose to produce similar sedative effects in comparison to DZ ([3]; ratio to diazepam, higher dose): 10 fold; displacement of [3H]-dihidroalprenolol binding [4]: did not displace; Ki ([5]; dentate gyrus): 82.2 ± 7.6 nM; Ki ([5]; parietal cortex): 30.1 ± 2.6 nM; potency to displace [3H]-FNZ, cerebellum vs dentate gyrus ([5]; ratio): 5 times; Ki ([5]; striatum): 53.7 ± 7.3 nM; displacement of [3H]-8-HO-DPAT binding [6]: did not displace; Ki ([7]; rat cerebral cortex): 25.9 ± 3.1 nM; Ki ([7]; rat hippocampus): 36.1 ± 5 nM; Ki ([7]; rat spinal cord): 48.1 ± 5.5 nM; Ki ([7]; rat striatum and spinal cord (range over both)): 44 to 48 nM; Ki ([7]; rat striatum): 44.1 ± 4.9 nM; displacement of [3H]-prazosin binding [8]: did not displace; selectivity ratio [9]: 100 to 300; latency or sleeping time (in words) ([10]; 1 mg/kg): did not change the latency or the sleeping time; Sleeping Time ([10]; DNF 1 mg/kg + TP 22 mg/kg, n=7): 207 (20/600) s; Latency ([10]; DNF 1 mg/kg + TP 22 mg/kg, n=7): 230 (164/300) s; Latency ([10]; DNF 3 mg/kg + TP 22 mg/kg, n=12): 237 (202/293) s; Sleeping Time ([10]; DNF 3 mg/kg + TP 22 mg/kg, n=12, p<0.05): 1277 (248/1800) s; latency to sleep (in words) ([10]; i.p., 3 mg/kg): No changes were observed in latency to sleep; sleeping time (in words) ([10]; i.p., 3 mg/kg, p<0.05): augmented the sleeping time
